Results on seven compounds are retold here after ChEMBL document CHEMBL1201862, “PubChem BioAssay data set” (2004).

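These data come from cells grown in 96-well plates and exposed to compound for 48 hours at five concentrations. GI50 = concentration required for 50% inhibition of growth.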 Activity calls are given as the source filed them. No stated cut-off is given here; in the data, active = GI50 up to about 1.1 µM and inactive = higher.

Some test systems named below: BT-549; OVCAR-4; SF-539; UACC-62; KM12; SK-MEL-5; UACC-257; SN12C; SW-620; SNB-19; DU-145; OVCAR-5; HCT-15; RPMI-8226; NCI-H522; NCI/ADR-RES; SK-MEL-28; SF-268; EKVX; U-251.
Assay in all cases: NCI-60 cell line screen, 48 h

With `COc1ccc2nc3cc(Cl)ccc3c(NCCCN(CCCl)CCCl)c2c1`, the GI50 in the experiment with BT-549 is 0.129 µM (active); with OVCAR-4 it was 0.0845 µM (active); in the experiment on SF-539 it was 0.0111 µM (active); in the experiment on UACC-62 it was 0.0156 µM (active); in the experiment on KM12 it was 0.052 µM (active); with SK-MEL-5, 0.034 µM (active). Besides, the GI50 in the experiment with UACC-257 is 0.122 µM (active); in the experiment with SN12C, 0.014 µM (active); in the experiment with SW-620, 0.0116 µM (active); in the experiment on SNB-19 it was 0.0225 µM (active); in the experiment with DU-145 it was 0.0121 µM (active); with OVCAR-5, 0.034 µM (active). In addition, the GI50 is 0.0253 µM with HCT-15; < 0.01 µM (active) in the experiment with RPMI-8226; 0.0105 µM (active) in the experiment on NCI-H522; < 0.01 µM (active) in the experiment with NCI/ADR-RES; 0.197 µM (active) with SK-MEL-28; 0.0164 µM (active) with SF-268. Besides, the GI50 with EKVX was 0.11 µM (active); in the experiment with U-251, 0.0185 µM (active).
For `COC(=O)c1cc2ccc(OC(C)=O)c(OC(C)=O)c2cn1`, the GI50 in the experiment with BT-549 was > 10 µM (inactive); in the experiment with OVCAR-4 it was 16.7 µM (inactive); in the experiment on SF-539, 19.1 µM (inactive); with UACC-62, 2.09 µM (inactive); with KM12, 18.7 µM (inactive); with SK-MEL-5, 16.1 µM (inactive). Also, the GI50 in the experiment on UACC-257 is 14.4 µM (inactive); in the experiment on SN12C, 3.11 µM (inactive); with SW-620, 3.64 µM (inactive); with SNB-19 it was > 10 µM (inactive); with DU-145, 24.7 µM (inactive); in the experiment with OVCAR-5, 18.7 µM (inactive). For the same compound, the GI50 in the experiment with HCT-15 is 20.4 µM; in the experiment with RPMI-8226, 2.16 µM (inactive); in the experiment on NCI-H522, 17.4 µM (inactive); with NCI/ADR-RES, 6.5 µM (inactive); in the experiment with SK-MEL-28, 19 µM (inactive); in the experiment on SF-268 it was 20.8 µM (inactive). Besides, the values for the GI50 with EKVX and in the experiment on U-251 were 22.6 µM (inactive) and 3.64 µM (inactive), respectively.
In the case of `CCSc1nc(N2CCOCC2)c2cn[nH]c2n1`, the GI50 with BT-549 is 82.2 µM (inactive); in the experiment with OVCAR-4, 62.5 µM (inactive); in the experiment with SF-539, > 100 µM (inactive); in the experiment with UACC-62, 20.7 µM (inactive); with KM12, 58.9 µM (inactive); in the experiment on SK-MEL-5, 50.6 µM (inactive). The GI50 is > 100 µM (inactive) with UACC-257; 52.5 µM (inactive) in the experiment on SN12C; > 100 µM (inactive) with SW-620; > 100 µM (inactive) in the experiment on SNB-19; > 100 µM (inactive) in the experiment with DU-145; 77.4 µM (inactive) in the experiment with OVCAR-5. Besides, the GI50 in the experiment on HCT-15 is 65.5 µM; in the experiment with RPMI-8226 it was 37.5 µM (inactive); in the experiment with NCI-H522, 35 µM (inactive); with NCI/ADR-RES it was > 100 µM (inactive); in the experiment with SK-MEL-28, 88.5 µM (inactive); with SF-268 it was > 100 µM (inactive). For the same compound, the GI50 with EKVX and in the experiment on U-251 was > 100 µM (inactive) each time.
Take `O=C(O)CC1NCc2cc3ccccc3nc21` (stereo not given): the GI50 in the experiment with BT-549, in the experiment with OVCAR-4, with SF-539, with UACC-62, with KM12 and with SK-MEL-5 was > 100 µM (inactive) throughout. Also, the GI50 in the experiment with UACC-257, in the experiment on SN12C, with SW-620, in the experiment on SNB-19, with DU-145 and with OVCAR-5 was > 100 µM (inactive) throughout. Further, the GI50 with HCT-15 was above 100 µM; in the experiment on RPMI-8226 it was > 100 µM (inactive); with NCI-H522, > 100 µM (inactive); in the experiment with NCI/ADR-RES, > 100 µM (inactive); with SK-MEL-28, > 100 µM (inactive); in the experiment with SF-268, > 100 µM (inactive). Further, the GI50 in the experiment with EKVX is 61.9 µM (inactive); with U-251, > 100 µM (inactive).
`O=[N+]([O-])c1ccc2c(c1)N=C1OC(c3c[nH]c4ccc(COc5ccccc5)cc34)C(O)=C1N2` (stereo not given): the GI50 is > 100 µM (inactive) in the experiment on BT-549; > 100 µM (inactive) with OVCAR-4; > 100 µM (inactive) with SF-539; 52 µM (inactive) with UACC-62; > 100 µM (inactive) with KM12; 37.5 µM (inactive) with SK-MEL-5. For the same compound, the GI50 is 33.7 µM (inactive) in the experiment on UACC-257; > 100 µM (inactive) in the experiment with SN12C; > 100 µM (inactive) in the experiment with SW-620; > 100 µM (inactive) in the experiment with SNB-19; > 100 µM (inactive) in the experiment with DU-145; > 100 µM (inactive) in the experiment on OVCAR-5. Moreover, the GI50 in the experiment with HCT-15 was above 100 µM; in the experiment with RPMI-8226, > 100 µM (inactive); with NCI-H522, 17.3 µM (inactive); in the experiment with NCI/ADR-RES it was > 100 µM (inactive); in the experiment with SK-MEL-28 it was > 100 µM (inactive); in the experiment on SF-268 it was > 100 µM (inactive). In addition, the GI50 with EKVX and in the experiment on U-251 was > 100 µM (inactive) each time.
Regarding `Cc1nc2ccccc2n1COC(Cn1ccnc1)c1ccc(Cl)cc1Cl` (stereo not given), the GI50 was 33 µM (inactive) in the experiment on BT-549; 30.4 µM (inactive) in the experiment with OVCAR-4; > 100 µM (inactive) with SF-539; 56.5 µM (inactive) in the experiment on UACC-62; 71.4 µM (inactive) in the experiment on KM12; 22.4 µM (inactive) in the experiment on SK-MEL-5. Further, the GI50 was 31 µM (inactive) in the experiment with UACC-257; > 100 µM (inactive) with SN12C; > 100 µM (inactive) in the experiment with SW-620; > 100 µM (inactive) with SNB-19; > 100 µM (inactive) with DU-145; > 100 µM (inactive) in the experiment on OVCAR-5. The GI50 was 34.8 µM in the experiment with HCT-15; 35.2 µM (inactive) in the experiment on RPMI-8226; > 100 µM (inactive) in the experiment on NCI-H522; 99.8 µM (inactive) in the experiment with NCI/ADR-RES; > 100 µM (inactive) with SK-MEL-28; 78.3 µM (inactive) with SF-268. In addition, the GI50 in the experiment on EKVX is 7.1 µM (inactive); with U-251 it was 86.9 µM (inactive).
Take `COc1ccc(/C=C/c2cc(O)cc(OC)c2)cc1`: the GI50 in the experiment on BT-549 was 22.9 µM (inactive); in the experiment with OVCAR-4 it was > 100 µM (inactive); in the experiment with SF-539, > 100 µM (inactive); with UACC-62 it was > 100 µM (inactive); with KM12, 40.9 µM (inactive); with SK-MEL-5, > 100 µM (inactive). The GI50 in the experiment on UACC-257 is > 100 µM (inactive); with SN12C, 65.2 µM (inactive); in the experiment with SW-620, > 100 µM (inactive); in the experiment on SNB-19 it was > 100 µM (inactive); with DU-145, > 100 µM (inactive); in the experiment on OVCAR-5, > 100 µM (inactive). Besides, the GI50 with HCT-15 is 0.855 µM; in the experiment with RPMI-8226, 22.3 µM (inactive); in the experiment on NCI-H522 it was 65.3 µM (inactive); in the experiment on NCI/ADR-RES, > 100 µM (inactive); with SK-MEL-28, > 100 µM (inactive); with SF-268 it was > 100 µM (inactive). Besides, the GI50 in the experiment with EKVX is 55.3 µM (inactive); in the experiment on U-251, 28.7 µM (inactive).
